From patent US9045563B2, “CXC chemokine receptor 4 (CXCR4) antagonistic polypeptide” (priority 2007, dated 2015) come the findings set out here.

Ends that are not written are not given here.

For data set [1], the system named is CCR5 tropic HIV-1 NL4-3 92th014, HIV-1-7312 and SIVmac239. Briefly: Infection of TZM-bl cells by R5 tropic lentiviruses. Type of data set: cell-based, SIV.
A short description of data set [2]: Isoelectric point of the peptide. Format: physicochemical.
The subject of data set [3] is dual tropic (CXCR4 and CCR5 using) variant 92ht593.1. Briefly: Infection of TZM-bl cells by dual tropic HIV-1, GalScreen. Type of data set: cell-based. The procedure:
5000 TZM-bl cells were seeded in 100 μl of DMEM (10% FCS, 100 U/ml of penicillin G and 100 μg/ml of streptomycin sulfate). ALB408-423 was dissolved in PBS (10 mg/ml). One day later, 20 μl serial dilutions of ALB408-423 in PBS were added to cells and cells were subsequently infected with 0.5 ng of p24 antigen HIV-1 in a total volume of 200 μl. HIV-1 molecular clones differing in coreceptor tropism were used and generated as described (Papkalla et al., J. Virol. 76: 8455-9, 2002).
FIG. 3: Chemically synthesized ALB408-423 specifically blocks X4 tropic HIV-1 infection. TZM-bl cells containing indicated dilutions of peptide were infected with HIV-1 variants differing in their coreceptor tropism. 3 days later Gal Screen assay was used to measure infection rates. […] B) Infection rates in the presence of 500 μg/ml ALB408-423 showing that the peptide specifically blocks X4 but not R5 tropic HIV-1 infection. Data shown are mean values±standard deviation derived from triplicate infections relative to PBS containing cells (100% infection).
After 3 days, infection was detected using GalScreen assay (TROPIX) (example 1). […] In contrast, CCR5 tropic HIV-1 variants were not inhibited even in the presence of very high doses of ALB408-423 (500 μg/ml) (FIG. 3B). Due to the specific inhibition of the infection caused by X4-tropic HIV-1 variants, it is to be assumed that ALB408-423 interacts with the chemokine receptor CXCR4.
Virus stocks were first titrated on TZM-bl cells. Then TZM-bl cells containing 100 μM of peptides were infected with infectivity normalized amounts of X4, dualtropic (X4/R5) or R5 tropic HIV-1.
FIG. 10. ALB408-423 and truncated ALB derivatives specifically block X4 tropic HIV-1 infection. TZM-bl cells either containing PBS or 100 μM of indicated peptides were infected with normalized infectivities of X4, dualtropic or R5 tropic HIV-1 clones. Infection rates were measured 2 days post infection using the GalScreen assay. Shown are mean values (% of PBS treated control)±standard deviations derived from triplicate measurements.

Data set [4] has as its system Jurkat T cells expressing CXCR4. Briefly: CXCL12 mediated migration of Jurkat T cells, transwell. The following applies: 360 μg/ml, 2 h. Type of data set: cell-based. The procedure:
CXCL12-CXCR4 signaling plays a crucial role in several diseases such as HIV/AIDS, cancer, leukemia and arthritis. CXCL12 expressing organs, tissues or cells can attract CXCR4 expressing tumor cells and allow metastasis. To investigate whether ALB408-423 is able to inhibit CXCL12 mediated tumor cell migration, migration assays were performed using Jurkat T cells expressing CXCR4 as model system (Princen et al., 2004, J.Virol. 78: 12996-13006). Jurkat T cells were suspended at 0.4×106 (200 μl) in medium containing 10% FBS, then the cell suspension (200 μl) was added to the upper compartment of 5 μm pore filter devices (Transwell, 24-well cell culture, Costar). Then, 600?l culture medium with or without CXCL12 (100 ng/ml) was added to the lower compartment allowing attraction of cells from the upper compartment. […] After incubation, plates were removed and 100 μl of cells that migrated to the lower compartment were either counted directly using a counting chamber or analyzed using a proliferation assay (CellTiter-Glo® Reagent, PROMEGA) as recommended by the manufacturer. […]
FIG. 16. […] After 2 hrs incubation at 37° C., the number of migrated cells in the lower compartment was detected by measuring intracellular ATP levels using CellTiter-Glo® Luminescent Cell Viability Assay kit (PROMEGA). […]

With “LVRYTKKVPQVSTPTL [ALB408-423, LVRYTKKVPQVSTPTL]”, the “effect on R5 tropic lentiviral infection” value in data set [1] is “no effect”. Also, the “isoelectric point (pI)” value in data set [2] is listed as 10.3. In addition, the “inhibition of dualtropic HIV-1 clone 92ht593.1” value in data set [3] (100 μM peptide) is recorded as “only moderately”. Besides, in data set [3] (serial dilutions, compared with X4 tropic variants), the “inhibition of dual tropic variant 92ht593.1” value is “blocked less efficiently”. The “block of CXCL12 induced cell migration” value in data set [4] was “almost completely”.
